Assay results: US9765107B2, “Cyclic phosphonate substituted nucleoside derivatives and methods of use thereof for the treatment of viral diseases” (Merck Sharp & Dohme Corp., priority 2013, dated 2017)

What was measured:
replicon cells = experiment: Cytotoxicity MTS assay in replicon cells; assay type: cell-based; conditions: CC50, MTS assay, three days post dosing
Protocol: To measure cell-based anti-HCV activity of the compounds of the present invention, replicon cells (1b-Con1) are seeded at 5000 cells/well in 96-well plates one day prior to treatment with a compound of the invention. Various concentrations of a test compound of the invention in DMSO are then added to the replicon cells, with the final concentration of DMSO at 0.5% and fetal bovine serum at 10% in the assay media. Cells are harvested three days post-dosing and the replicon RNA level is determined using real-time RT-PCR (Taqman assay) with GAPDH RNA as endogenous control. EC50 values are calculated from experiments with 10 serial twofold dilutions of the inhibitor in triplicate. To measure cytotoxicity in replicon cells of an inhibitor, an MTS assay is performed according to the manufacturer's protocol for CellTiter 96 Aqueous One Solution Cell Proliferation Assay (Promega, Cat #G3580) three days post dosing on cells treated identically as in replicon activity assays. CC50 is the concentration of inhibitor that yields 50% inhibition compared to vehicle-treated cells. Cytotoxicity in other types of cells can be measured using the same MTS protocol.

[1] = Replicon activity assay (replicon RNA by real-time RT-PCR); assay type: cell-based, HCV; conditions: Hepatitis C virus, 72 h; replicon RNA level, three days post-dosing, 10% fetal bovine serum; read-out: Replicon (1a) EC50

| Compound | Cytotoxicity (replicon cells) [µM] | EC50 [1] [µM] |
| --- | --- | --- |
| CCCC(CCC)CO[P@@]1(=O)OC[C@H]2O[C@@H](n3ccc(=O)[nH]c3=O)[C@](C)(N)[C@@H]2O1 | >100 | > 100 |
| CCC(CC)CO[P@@]1(=O)OC[C@H]2O[C@@H](n3ccc(=O)[nH]c3=O)[C@](C)(N)[C@@H]2O1 | >100 | 43.2 |
| C[C@@]1(N)[C@@H]2O[P@@](=O)(OC3CCCC3)OC[C@H]2O[C@H]1n1ccc(=O)[nH]c1=O | >100 | > 100 |
| C[C@@]1(N)C2O[P@@](=O)(OC3CCC3)OC[C@H]2O[C@H]1n1ccc(=O)[nH]c1=O (stereo partly drawn) | >100 | > 100 |
| C[C@@]1(N)[C@@H]2O[P@@](=O)(OCc3ccccc3)OC[C@H]2O[C@H]1n1ccc(=O)[nH]c1=O | >100 | 56.2 |
| CC(C)O[P@@]1(=O)OC[C@H]2O[C@@H](n3ccc(=O)[nH]c3=O)[C@](C)(N)C2O1 (stereo partly drawn) | >100 | > 100 |
